Laboratory results published in ChEMBL document CHEMBL3045379, “Synthesis and Fungicidal Activity of 3-1, 2, 4-Thiadiazolines” (J Pestic Sci, 1992).
Activity calls are given as the source filed them. The rule behind the calls is not given here.

system: Pseudoperonospora cubensis; assay: Fungicidal activity against Pseudoperonospora cubensis infected cucumber cv. Sagamihanjiro seedling assessed as inhibition of zoospore liberation from zoosporangia after 4 days by microscopic analysis in presence of cysteine; type: functional, organism-based; conditions: not given

SMILES | inhibition
Cn1s/c(=N/c2ccc(Cl)cc2)nc1-c1ccccc1 | inactive

system: not listed separately; assay: Chemical stability of the compound in ethanol solution after 1 week; type: physicochemical; conditions: 168 h

SMILES | Stability
Cn1s/c(=N/c2ccc(Cl)cc2)nc1-c1ccccc1 | Stable

system: Pseudoperonospora cubensis; assay: Fungicidal activity against Pseudoperonospora cubensis infected cucumber cv. Sagamihanjiro seedling assessed as inhibition of zoospore liberation from zoosporangia after 4 days by microscopic analysis; type: functional, organism-based; conditions: not given

SMILES | inhibition
Cn1s/c(=N/c2ccc(Cl)cc2)nc1-c1ccccc1 | Active

system: not listed separately; assay: Chemical stability of the compound in THF solution after 1 day; type: physicochemical; conditions: 24 h

SMILES | Stability
Cn1s/c(=N/c2ccc(Cl)cc2)nc1-c1ccccc1 | Unstable

system: not listed separately; assay: Chemical stability of the compound in acetonitrile solution after 1 day; type: physicochemical; conditions: 24 h

SMILES | Stability
Cn1s/c(=N/c2ccc(Cl)cc2)nc1-c1ccccc1 | Unstable

system: not listed separately; assay: Chemical stability of the compound in acetone solution after 1 day; type: physicochemical; conditions: 24 h

SMILES | Stability
Cn1s/c(=N/c2ccc(Cl)cc2)nc1-c1ccccc1 | Unstable

system: Pseudoperonospora cubensis; assay: Fungicidal activity against Pseudoperonospora cubensis infected in cucumber cv. Sagamihanjiro seedling assessed as reduction in leaf lesion after 4 days by pot test; type: functional, organism-based; conditions: not given

SMILES | EC50
Cn1s/c(=N/C(=O)c2ccc(Cl)cc2)nc1-c1ccc(Cl)cc1 | 400 ppm
CCCn1s/c(=N/c2ccc(C)cc2)nc1-c1ccccc1 | 141.5 ppm
Cn1s/c(=N/c2ccc(F)cc2)nc1-c1ccc(Cl)cc1 | 22.1 ppm
Cn1s/c(=N/c2ccc(Br)cc2)nc1-c1ccccc1 | 17.9 ppm
Cn1s/c(=N/c2ccc(C(C)(C)C)cc2)nc1-c1ccc(Cl)cc1 | 14 ppm
Cn1s/c(=N/c2ccc(Br)cc2)nc1-c1ccc(Cl)cc1Cl | 131.1 ppm
Cn1s/c(=N/c2ccccc2-c2ccccc2)nc1-c1ccccc1 | 30.4 ppm
Cn1s/c(=N/c2cccc(Cl)c2)nc1-c1ccc(Cl)cc1 | 25.9 ppm
COc1ccc(/N=c2\nc(-c3ccc(Cl)cc3)n(C)s2)cc1 | 11 ppm
Cn1s/c(=N/c2ccc(Cl)cc2)nc1Cc1ccccc1 | 79.1 ppm
Cn1s/c(=N/c2cccc(Cl)c2Cl)nc1-c1ccc(Cl)cc1 | 179 ppm
CCOC(=O)C1CN(c2ccc(Cl)cc2)/C(=N/C(=N/C)c2ccccc2)S1 (stereo not drawn) | 92.8 ppm
Cn1s/c(=N/c2ccc(Cl)cc2)nc1-c1ccco1 | 8.4 ppm
CCN(CC)c1n/c(=N\c2ccc(Cl)cc2)sn1C | 13.1 ppm
CCOc1n/c(=N\c2ccc(Cl)cc2)sn1C | 308.1 ppm
CCc1ccc(/N=c2\nc(-c3ccc(Cl)cc3)n(C)s2)cc1 | 21.8 ppm
Cn1s/c(=N/c2ccccc2)nc1-c1ccc(Cl)cc1 | 23.4 ppm
Cn1s/c(=N/c2ccc(Cl)cc2)nc1-c1cccc(Cl)c1 | 25.2 ppm
C/N=C(/N=c1\ssc(=S)n1-c1ccc(Cl)cc1)c1ccccc1 | 84.1 ppm
Cc1n/c(=N\c2ccc(Cl)cc2)sn1C | 66.9 ppm
Cn1s/c(=N/c2ccc(Cl)cc2)nc1-c1ccc(Cl)c(Cl)c1 | 9.5 ppm
Br.Cn1s/c(=N/C2CCCCC2)nc1-c1ccccc1 | > 400 ppm
CC(C)c1n/c(=N\c2ccc(Cl)cc2)sn1C | 252.7 ppm
C/N=C(/N=c1\sn(-c2ccccc2)c(=S)n1-c1ccc(Cl)cc1)c1ccccc1 | 33.6 ppm
Cn1s/c(=N/c2ccc(Cl)cc2)nc1C(Cl)(Cl)Cl | 37 ppm
Clc1ccc(/N=c2\nc(-c3ccc(Cl)cc3)n(-c3ccccc3)s2)cc1 | > 400 ppm

SMILES | EC50
Cn1s/c(=N/c2ccc(Cl)cc2Cl)nc1-c1ccccc1 | 63.4 ppm
Cc1cccc(C)c1/N=c1\nc(-c2ccccc2)n(C)s1 | 128.1 ppm
Br.CC/N=c1\nc(-c2ccccc2)n(CC)s1 | > 400 ppm
Cn1s/c(=N/c2ccc(Cl)cc2)nc1-c1ccc([N+](=O)[O-])cc1 | 29.7 ppm
CCCc1ccc(/N=c2\nc(-c3ccc(Cl)cc3)n(C)s2)cc1 | 23.8 ppm
Cc1cccc(/N=c2\nc(-c3ccc(Cl)cc3)n(C)s2)c1 | 26.1 ppm
CN(C)c1n/c(=N\c2ccc(Cl)cc2)sn1C | 52.5 ppm
CCc1n/c(=N\c2ccc(Cl)cc2)sn1C | 352.6 ppm
Cn1s/c(=N/c2ccc(Cl)cc2)nc1-c1ccc(Cl)cc1 | 7.2 ppm
Cn1s/c(=N/c2ccc(-c3ccccc3)cc2)nc1-c1ccccc1 | 23.1 ppm
Clc1ccc(/N=c2\nc(-c3ccc(Cl)cc3)n(Cc3ccccc3)s2)cc1 | 43.3 ppm
Cn1s/c(=N/c2ccc(O)cc2)nc1-c1ccccc1 | 39.6 ppm
CCn1s/c(=N/c2ccc(Cl)cc2)nc1-c1ccc(Cl)cc1 | 80.4 ppm
CN(C)C(=O)n1s/c(=N/c2ccc(Cl)cc2)nc1-c1ccccc1 | 87.5 ppm
Cc1cc(C)cc(/N=c2\nc(-c3ccc(Cl)cc3)n(C)s2)c1 | 26.4 ppm
CN(c1ccccc1)c1n/c(=N\c2ccc(Cl)cc2)sn1C | 37.5 ppm
CCCCc1ccc(/N=c2\nc(-c3ccc(Cl)cc3)n(C)s2)cc1 | 30.4 ppm
Cc1ccc(-c2n/c(=N\c3ccc(Cl)cc3)sn2C)cc1 | 37.4 ppm
Cn1s/c(=N/c2ccc(Cl)cc2)nc1SCc1ccccc1 | 46.2 ppm
COc1ccc(-c2n/c(=N\c3ccc(Cl)cc3)sn2C)cc1 | 132.7 ppm
Clc1ccc(Nc2nc(-c3ccccc3)ns2)cc1 | Not Active
CC1(C)Cn2s/c(=N/c3ccc(Cl)cc3)nc2S1 | 35.5 ppm
CCn1s/c(=N/c2ccc(Cl)cc2)nc1-c1ccccc1 | 13.6 ppm
CCCn1s/c(=N/c2ccc(Cl)cc2)nc1-c1ccccc1 | 9.9 ppm
C/N=C(/N=c1\snc(-c2ccccc2)n1-c1ccc(Cl)cc1)c1ccccc1 | 45.3 ppm
Cn1s/c(=N/c2ccc(Cl)cc2)nc1-c1ccccc1 | 5.7 ppm

SMILES | EC50
Cn1s/c(=N/c2ccc([N+](=O)[O-])cc2)nc1-c1ccccc1 | > 400 ppm
Cn1s/c(=N/c2ccccc2)nc1-c1ccccc1 | 45.3 ppm
Cn1s/c(=N/c2ccc(Cl)c(Cl)c2)nc1-c1ccc(Cl)cc1 | 24.7 ppm
Cc1cccc(/N=c2\nc(-c3ccc(Cl)cc3)n(C)s2)c1C | 25 ppm
Cn1o/c(=N/c2ccc(Cl)cc2)nc1-c1ccc(Cl)cc1 | > 400 ppm
CC(C)n1s/c(=N/c2ccc(Cl)cc2)nc1-c1ccccc1 | 72.9 ppm
CCn1s/c(=N/c2cccc([N+](=O)[O-])c2)nc1-c1ccccc1 | 63.1 ppm
CCSc1n/c(=N\c2ccc(Cl)cc2)sn1C | 36.2 ppm
Cn1s/c(=N/c2ccc(Cl)cc2)nc1-c1cc(Cl)cc(Cl)c1 | 66.8 ppm
CCn1s/c(=N/c2cc(Cl)cc(Cl)c2)nc1-c1ccc(Cl)cc1 | 86.7 ppm
Cc1ccc(/N=c2\nc(-c3ccc(Cl)cc3)n(C)s2)cc1 | 9.2 ppm
Cn1s/c(=N/c2ccc(Nc3ccccc3)cc2)nc1-c1ccccc1 | 81 ppm
Clc1ccc(/N=c2\nc3n(s2)CCS3)cc1 | 68.6 ppm
Clc1ccc(/N=c2\nc3n(s2)CCCS3)cc1 | > 400 ppm
Cc1ccc(/N=c2\nc(-c3ccc(Cl)cc3)n(C)s2)cc1C | 13.2 ppm
COc1n/c(=N\c2ccc(Cl)cc2)sn1C | > 400 ppm
Cn1s/c(=N/c2ccc(I)cc2)nc1-c1ccccc1 | 100 ppm
Cc1ccc(/N=c2\nc(-c3ccccc3)n(C)s2)cc1 | 60.2 ppm
CSc1n/c(=N\c2ccc(Cl)cc2)sn1C | 94.9 ppm
CN(C)c1ccc(/N=c2\nc(-c3ccc(Cl)cc3)n(C)s2)cc1 | 141.5 ppm
CCn1s/c(=N/c2ccc(Br)cc2)nc1-c1ccccc1 | 70.2 ppm
Cn1s/c(=N/c2ccc(Cl)cc2)nc1-c1ccccc1Cl | 11.6 ppm
Cn1s/c(=N/c2ccc(Br)cc2)nc1-c1ccc(Cl)cc1 | 12 ppm
Cn1s/c(=N/c2ccc(Oc3ccc(Cl)cc3)cc2)nc1-c1ccccc1 | 31.9 ppm

species on record: Homo sapiens; assay: Inhibition of ADH (unknown origin) at 3 ug/ml after 1 hr; conditions: not given

SMILES | inhibition
Cn1s/c(=N/c2ccc(Cl)cc2)nc1-c1ccccc1 | Active
